Results taken from US20180250207A1, “LIQUID CONCENTRATE FOR PRESERVING COSMETICS” (SCHÜLKE & MAYR GMBH, priority 2015, published 2018).
Where a name gives a salt, the structure may show the parent alone.

Tested on: Staphylococcus aureus, Kocuria rhizophila, Enterobacter gergoviae, Escherichia coli, Klebsiella pneumoniae, Pseudomonas aeruginosa, Pseudomonas fluorescens …
Assay: Koko test: preserving effect of preservatives in a cosmetic formulation (PEG-free emulsion for baby wipes), weekly re-inoculation and smears
Type: cell-based, bacteria, yeast, moulds
Details: use concentration of 1.0% by weight in the emulsion
Protocol: The test described below serves to assess the preserving effect of chemical preservatives in cosmetic formulations. With the help of the described method, the aim is to test the efficacy of chemical preservatives with regard to pack preservation for cosmetic formulations. For this purpose, in different experimental batches to the nonpreserved samples, the preservatives to be investigated are added in different concentrations. A continual germ loading is achieved through periodic inoculation of the experimental batches. In parallel to the inoculation, smears of the individual batches are performed in each case directly beforehand. […] To be on the safe side, negative smears are observed for a further two days and assessed again. Assessment of the preserving effect of the individual product concentrations is performed in a semi-quantitative method via the growth of the individual smears. −=growth-free ++=moderate growth +=weak growth +++=strong growth The growth is differentiated according to bacteria, yeasts and moulds (“B”=bacteria, “Y”=yeasts, “M”=moulds, “Sp”=spore-forming bacteria, “/”=the test was terminated). […] The sample is well preserved if, under the aforementioned laboratory conditions, it withstands a period of six weeks without microbial attack of the sample batches, i.e. microbial growth cannot be detected even after the sixth inoculation. […]

CCCCCCCCN=c1ccn(CCCCCCCCCCn2ccc(=NCCCCCCCC)cc2)cc1 [Octenidine dihydrochloride] was tested, and the “Preserving effect, overall assessment in words” value was “does not have an antimicrobial effect on its own”.
